Data reported in PMC6270232, “1,2,3-Triazole-Substituted Oleanolic Acid Derivatives: Synthesis and Antiproliferative Activity” (Molecules, 2013).

Legend:
[1] = system: promyelocytic leukemia (HL-60) cells; test: Antiproliferative assay (MTT reduction), HL-60; type: cell-based; settings: Homo sapiens, 72 h, HL-60 promyelocytic leukemia cells, 3 days treatment, read-out: IC50 ± SD, HL-60
Protocol: (§1) All human cell lines used in this work were purchased from the American Type Culture Collection (ATCC, Manasas, VA, USA). […] Promyelocytic leukemia HL-60 cells (CCL-240) were grown in suspension in RPM1 medium containing 1 mM sodium pyruvate and 2.0 g/L sodium bicarbonate. All media were supplemented with 10% heat-inactivated FBS, 100 IU/mL penicillin and 100 µg/mL streptomycin. […] For the antiproliferative assay, adherent cells were plated at a density of 5 × 10^4 cells/mL and HL-60 cells at 30 × 10^4 cells/mL. Cells were seeded in 96-well plates (100 µL/well). One day after seeding, cells were treated with medium containing the compounds at concentrations ranging from 0 up to 100 µM during 3 days. The compounds were dissolved in DMSO (1% final concentration) and complete medium. Untreated cells (medium containing 1% DMSO) were used as 100% viability controls. […] Each concentration was tested in sextuplicate and experiments were repeated 2 times. Cell viability was determined by means of the MTT reduction assay at the end of the incubation with the products.

[2] = system: gastric epithelial adenocarcinoma (AGS) cells; test: Antiproliferative assay (MTT reduction), AGS; type: cell-based; settings: Homo sapiens, 72 h, 3 days treatment, read-out: IC50 ± SD, AGS
Protocol: (§2) All human cell lines used in this work were purchased from the American Type Culture Collection (ATCC, Manasas, VA, USA). Normal lung MRC-5 fibroblasts (CCL-171), SK-MES-1 lung cancer cells (HTB-58) and J82 bladder carcinoma cells (HTB-1) were grown as monolayers in minimum essential Eagle medium (MEM) with Earles’s salts, 2 mM L-glutamine and 1.5 g/L sodium bicarbonate. Gastric adenocarcinoma AGS cells (CRL-1739) were grown as monolayers in Ham F-12 medium containing 1 mM L-glutamine and 1.5 g/L sodium bicarbonate. Promyelocytic leukemia HL-60 cells (CCL-240) were grown in suspension in RPM1 medium containing 1 mM sodium pyruvate and 2.0 g/L sodium bicarbonate. All media were supplemented with 10% heat-inactivated FBS, 100 IU/mL penicillin and 100 µg/mL streptomycin. Cells were grown in a humidified incubator with 5% CO2 in air at 37 °C. For the antiproliferative assay, adherent cells were plated at a density of 5 × 10^4 cells/mL and HL-60 cells at 30 × 10^4 cells/mL. Cells were seeded in 96-well plates (100 µL/well). One day after seeding, cells were treated with medium containing the compounds at concentrations ranging from 0 up to 100 µM during 3 days. The compounds were dissolved in DMSO (1% final concentration) and complete medium. Untreated cells (medium containing 1% DMSO) were used as 100% viability controls. […] Each concentration was tested in sextuplicate and experiments were repeated 2 times. Cell viability was determined by means of the MTT reduction assay at the end of the incubation with the products. The results were transformed to percentage of controls and the IC50 values were graphically obtained from the dose-response curves.

[3] = system: bladder carcinoma (J82) cells; test: Antiproliferative assay (MTT reduction), J82; type: cell-based; settings: Homo sapiens, 72 h, 3 days treatment, read-out: IC50 ± SD, J82
Protocol: as §2

[4] = system: lung cancer (SK-MES-1) cells; test: Antiproliferative assay (MTT reduction), SK-MES-1; type: cell-based; settings: Homo sapiens, 72 h, SK-MES-1 lung cancer cells, 3 days treatment, read-out: IC50 ± SD, SK-MES-1
Protocol: as §1

[5] = system: normal lung fibroblasts (MRC-5); test: Antiproliferative assay (MTT reduction), MRC-5; type: cell-based, human; design: key to Antiproliferative activity in words, MRC-5: IC50 values > 100 µM were considered inactive; settings: for IC50: Homo sapiens, MRC5, 72 h, MRC-5 normal lung fibroblasts, 3 days treatment, MTT, read-out: IC50 ± SD, MRC-5
Protocol: as §1

[6] = system: MRC-5, AGS, HL-60, SK-MES-1 and J82 cells; test: Antiproliferative assay (MTT reduction), all cell lines together; type: cell-based, human; design: key to Antiproliferative activity in words, all cell lines: IC50 values > 100 µM were considered inactive; settings: SK-MES-1, J82 and HL-60; for Antiproliferative activity in words, all cell lines: MRC-5, AGS, up to 100 µM; for IC50: Homo sapiens, range over MRC-5, AGS
Protocol: as §2

Compound | IC50 [1] [µM] | IC50 [2] [µM] | IC50 [3] [µM] | IC50 [4] [µM] | IC50 [5] [µM] | melting point [°C] | Antiproliferative activity in words, MRC-5 ([5]; MRC-5 cells, up to 100 µM) | Antiproliferative activity in words, all cell lines [6] | IC50 [6] [µM]
COC(=O)[C@]12CCC(C)(C)C[C@H]1C1=CCC3[C@@]4(C)CC[C@H](OC(=O)CCCc5cn(S(=O)(=O)c6ccc(C)cc6)nn5)C(C)(C)C4CC[C@@]3(C)[C@]1(C)CC2 (stereo partly drawn) [Compound 16] | 84.2 ± 7.5 | > 100 | > 100 | > 100 | > 100 | – | – | – | –
CC1(C)CC[C@]2(C(=O)O)CC[C@]3(C)C(=CCC4[C@@]5(C)CC[C@H](OC(=O)CCc6cn(CSc7ccccc7)nn6)C(C)(C)C5CC[C@]43C)[C@@H]2C1 (stereo partly drawn) [Compound 13] | 18.1 ± 1.6 | 31.6 ± 1.6 | > 100 | 65.5 ± 4.4 | > 100 | 170 | inactive | – | –
C#CCCC(=O)O[C@H]1CC[C@@]2(C)C(CC[C@]3(C)C2CC=C2[C@@H]4CC(C)(C)CC[C@]4(C(=O)OC)CC[C@]23C)C1(C)C (stereo partly drawn) [Compound 2] | > 100 | > 100 | > 100 | > 100 | > 100 | 173 | – | inactive | –
COC(=O)[C@]12CCC(C)(C)C[C@H]1C1=CCC3[C@@]4(C)CC[C@H](OC(=O)CCc5cn(-c6ccc(OC)cc6)nn5)C(C)(C)C4CC[C@@]3(C)[C@]1(C)CC2 (stereo partly drawn) [Compound 8] | > 100 | > 100 | > 100 | > 100 | > 100 | – | – | – | –
COC(=O)[C@]12CCC(C)(C)C[C@H]1C1=CCC3[C@@]4(C)CC[C@H](OC(=O)CCc5cn(Cc6ccc(Cl)cc6)nn5)C(C)(C)C4CC[C@@]3(C)[C@]1(C)CC2 (stereo partly drawn) [Compound 10] | > 100 | > 100 | > 100 | > 100 | > 100 | – | – | activity was lost | –
C#CCCCC(=O)O[C@H]1CC[C@@]2(C)C(CC[C@]3(C)C2CC=C2[C@@H]4CC(C)(C)CC[C@]4(C(=O)OC)CC[C@]23C)C1(C)C (stereo partly drawn) [Compound 4] | > 100 | > 100 | > 100 | > 100 | > 100 | 176 | – | inactive | –
COC(=O)[C@]12CCC(C)(C)C[C@H]1C1=CCC3[C@@]4(C)CC[C@H](OC(=O)CCc5cn(-c6ccccc6)nn5)C(C)(C)C4CC[C@@]3(C)[C@]1(C)CC2 (stereo partly drawn) [Compound 6] | > 100 | > 100 | > 100 | > 100 | > 100 | – | – | – | –
C#CCCC(=O)O[C@H]1CC[C@@]2(C)C(CC[C@]3(C)C2CC=C2[C@@H]4CC(C)(C)CC[C@]4(C(=O)O)CC[C@]23C)C1(C)C (stereo partly drawn) [Compound 1] | 19.6 ± 0.1 | 19.1 ± 1 | 23.1 ± 1.6 | 22.4 ± 1.9 | 21.3 ± 0.9 | 235 | – | – | 19.6 to 23.1
CC1(C)CC[C@]2(C(=O)O)CC[C@]3(C)C(=CCC4[C@@]5(C)CC[C@H](OC(=O)CCc6cn(-c7ccccc7)nn6)C(C)(C)C5CC[C@]43C)[C@@H]2C1 (stereo partly drawn) [Compound 5] | > 100 | > 100 | > 100 | > 100 | > 100 | – | – | – | –
COC(=O)[C@]12CCC(C)(C)C[C@H]1C1=CCC3[C@@]4(C)CC[C@H](OC(=O)CCCc5cn(CSc6ccccc6)nn5)C(C)(C)C4CC[C@@]3(C)[C@]1(C)CC2 (stereo partly drawn) [Compound 18] | > 100 | > 100 | > 100 | > 100 | > 100 | – | – | – | –
Cc1ccc(S(=O)(=O)n2cc(CCCC(=O)O[C@H]3CC[C@@]4(C)C(CC[C@]5(C)C4CC=C4[C@@H]6CC(C)(C)CC[C@]6(C(=O)O)CC[C@]45C)C3(C)C)nn2)cc1 (stereo partly drawn) [Compound 15] | 11.5 ± 1 | 22.2 ± 1.6 | 14.3 ± 0.6 | 11.9 ± 0.6 | 17.1 ± 1 | 186 | – | – | 11.5 to 22.2
Cc1ccc(S(=O)(=O)n2cc(CCC(=O)O[C@H]3CC[C@@]4(C)C(CC[C@]5(C)C4CC=C4[C@@H]6CC(C)(C)CC[C@]6(C(=O)O)CC[C@]45C)C3(C)C)nn2)cc1 (stereo partly drawn) [Compound 11] | 15.9 ± 1.5 | 10.8 ± 0.6 | 47.1 ± 2.9 | 21.4 ± 1.3 | 14.1 ± 0.8 | 163 | – | – | 10.8 to 47.1
COc1cc([C@@H]2c3cc4c(cc3[C@@H](O[C@@H]3O[C@@H]5CO[C@@H](C)O[C@H]5[C@H](O)[C@H]3O)[C@H]3COC(=O)[C@H]23)OCO4)cc(OC)c1O [Etoposide, reference compound] | – | 0.58 ± 0.02 | 3.49 ± 0.16 | – | – | – | – | – | –
CC1(C)CC[C@]2(C(=O)O)CC[C@]3(C)C(=CCC4[C@@]5(C)CC[C@H](OC(=O)CCc6cn(Cc7ccc(Cl)cc7)nn6)C(C)(C)C5CC[C@]43C)[C@@H]2C1 (stereo partly drawn) [Compound 9] | 35.8 ± 4.1 | 8.9 ± 0.4 | 35.4 ± 2.8 | 50.4 ± 3.5 | > 100 | 184 | – | – | –
COc1ccc(-n2cc(CCC(=O)O[C@H]3CC[C@@]4(C)C(CC[C@]5(C)C4CC=C4[C@@H]6CC(C)(C)CC[C@]6(C(=O)O)CC[C@]45C)C3(C)C)nn2)cc1 (stereo partly drawn) [Compound 7] | > 100 | 95.1 ± 5.8 | > 100 | > 100 | > 100 | 210 | – | – | –
CC1(C)CC[C@]2(C(=O)O)CC[C@]3(C)C(=CCC4[C@@]5(C)CC[C@H](OC(=O)CCCc6cn(CSc7ccccc7)nn6)C(C)(C)C5CC[C@]43C)[C@@H]2C1 (stereo partly drawn) [Compound 17] | 11.8 ± 0.9 | 23.7 ± 1.4 | > 100 | 61.8 ± 3.1 | 46.7 ± 2.4 | 198 | – | – | –
C#CCCCC(=O)O[C@H]1CC[C@@]2(C)C(CC[C@]3(C)C2CC=C2[C@@H]4CC(C)(C)CC[C@]4(C(=O)O)CC[C@]23C)C1(C)C (stereo partly drawn) [Compound 3] | 22.4 ± 0.1 | 22.1 ± 1.5 | 56.2 ± 4.3 | 23.4 ± 1.8 | 14.1 ± 1.2 | 212 | – | – | 14.1 to 56.2
COC(=O)[C@]12CCC(C)(C)C[C@H]1C1=CCC3[C@@]4(C)CC[C@H](OC(=O)CCc5cn(CSc6ccccc6)nn5)C(C)(C)C4CC[C@@]3(C)[C@]1(C)CC2 (stereo partly drawn) [Compound 14] | > 100 | > 100 | > 100 | > 100 | > 100 | 195 | – | – | –
COC(=O)[C@]12CCC(C)(C)C[C@H]1C1=CCC3[C@@]4(C)CC[C@H](OC(=O)CCc5cn(S(=O)(=O)c6ccc(C)cc6)nn5)C(C)(C)C4CC[C@@]3(C)[C@]1(C)CC2 (stereo partly drawn) [Compound 12] | 22.4 ± 1.8 | 63 ± 3.8 | > 100 | 76.3 ± 5.1 | 76 ± 3.8 | – | – | – | –
